# Measured values published in patent publication US11564928B1, “Cannabinoid receptor type 2 (CB2) modulators and uses thereof” (Teon Therapeutics, Inc., priority 2020, dated 2023).
# Where two headings read alike, the source gives them in different places.
# What was measured:
# human CB2 receptor = human CB2 receptor (Homo sapiens (Human), UniProt P34972); experiment: CB2 receptor binding assay ([3H]CP-55,940 displacement, HEK-293 membranes)
# Experimental: The compounds were evaluated in CB1R and CB2R binding assays using membranes from HEK-293 cells transfected with cDNAs encoding the human recombinant CB1R (Bmax=[…] protein) and human recombinant CB2R (Bmax=[…] protein) (Perkin-Elmer). […] Compounds were tested following the procedure described by the cell membrane manufacturer. […] CB2R binding assays were carried out with two different buffers: incubation buffer (Tris-HCl, 50 mM; MgCl2, 5 mM; CaCl2 1 mM; BSA, 0.2% at pH 7.4) and washing buffer (Tris-HCl, 50 mM; NaCl 500 mM; BSA, 0.1% at pH 7.4). […] Assays were performed in duplicate and incubated for […] at 37° C. […] Data are analyzed and IC50 is calculated using GraphPad Prism 5 and the model “log(inhibitor) vs. response—Variable slope”. The binding affinity of the compounds is Determined by Using the Cheng and Prusoff Equation Ki=IC50/(1+[radioligand]/Kd).
# human recombinant CB1R = human recombinant CB1R (Homo sapiens (Human), UniProt P21554); experiment: CB1 receptor binding assay ([3H]CP-55,940 displacement, HEK-293 membranes); conditions: membranes of HEK-293 cells with human recombinant CB1R, [3H]CP-55,940, read-out: CB1 IC50
# human recombinant CB1R, sequence (P21554 whole entry): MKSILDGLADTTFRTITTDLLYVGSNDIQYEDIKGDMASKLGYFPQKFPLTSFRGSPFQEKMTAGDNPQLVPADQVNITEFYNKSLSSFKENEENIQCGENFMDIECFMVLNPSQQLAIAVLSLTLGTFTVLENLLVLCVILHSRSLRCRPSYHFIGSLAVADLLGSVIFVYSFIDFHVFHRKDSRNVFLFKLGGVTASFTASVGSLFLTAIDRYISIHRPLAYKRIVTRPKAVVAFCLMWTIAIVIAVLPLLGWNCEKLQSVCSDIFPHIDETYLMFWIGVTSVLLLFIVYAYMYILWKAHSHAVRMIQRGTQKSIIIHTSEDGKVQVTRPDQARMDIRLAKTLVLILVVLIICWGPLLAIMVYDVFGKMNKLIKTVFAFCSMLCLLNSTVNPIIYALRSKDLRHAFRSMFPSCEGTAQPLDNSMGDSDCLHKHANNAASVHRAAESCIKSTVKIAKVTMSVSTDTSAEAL
# Experimental: The compounds were evaluated in CB1R and CB2R binding assays using membranes from HEK-293 cells transfected with cDNAs encoding the human recombinant CB1R (Bmax=[…] protein) and human recombinant CB2R (Bmax=[…] protein) (Perkin-Elmer). […]. Compounds were tested following the procedure described by the cell membrane manufacturer. […] CB2R binding assays were carried out with two different buffers: incubation buffer (Tris-HCl, 50 mM; MgCl2, 5 mM; CaCl2 1 mM; BSA, 0.2% at pH 7.4) and washing buffer (Tris-HCl, 50 mM; NaCl 500 mM; BSA, 0.1% at pH 7.4). […] Assays were performed in duplicate and incubated for […] at 37° C. After the incubation, the assay mixture is filtered through 96 GF/C filter plates (Perkin Elmer #6005174) using Perkin Elmer Filtermate Harvester, and then washed four times with ice-cold washing buffer. The filters are dried for 1 hour at 50° C. and [^3H] trapped on filter counted for radioactivity in Perkin Elmer Microscint 20 cocktail (#6013329) using Perkin Elmer MicroBeta2 Reader. […] Data are analyzed and IC50 is calculated using GraphPad Prism 5 and the model “log(inhibitor) vs. response—Variable slope”. The binding affinity of the compounds is Determined by Using the Cheng and Prusoff Equation Ki=IC50/(1+[radioligand]/Kd).
# [1] = membranes of HEK-293 cells with human recombinant CB2R, [3H]CP-55,940, class symbols, read-out: CB2 IC50
# [2] = membranes of HEK-293 cells with human recombinant CB2R, [3H]CP-55,940, read-out: CB2 IC50
# human CB2 receptor, sequence (P34972 whole entry): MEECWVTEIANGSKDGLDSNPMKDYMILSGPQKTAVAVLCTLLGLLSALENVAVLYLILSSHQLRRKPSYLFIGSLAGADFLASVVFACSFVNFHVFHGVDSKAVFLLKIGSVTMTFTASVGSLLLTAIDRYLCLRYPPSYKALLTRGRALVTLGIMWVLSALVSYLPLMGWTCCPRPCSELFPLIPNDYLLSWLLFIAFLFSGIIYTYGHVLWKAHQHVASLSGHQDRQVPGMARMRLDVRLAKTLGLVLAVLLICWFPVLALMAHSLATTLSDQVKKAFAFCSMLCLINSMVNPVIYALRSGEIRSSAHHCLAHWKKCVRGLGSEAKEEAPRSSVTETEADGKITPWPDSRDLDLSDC
SMILES,IC50 (human CB2 receptor; [1]),IC50 (human recombinant CB1R; class symbols),IC50 (human CB2 receptor),IC50 (human CB2 receptor; [2]),IC50 (human recombinant CB1R)
"CC(NC(=O)c1cc2cc(Br)cnc2n(Cc2ncccn2)c1=O)c1ccc(F)cc1 (stereo not drawn) [Compound 64, 6-bromo-N-(1-(4-fluorophenyl)ethyl)-2-oxo-1-(pyrimidin-2-ylmethyl)-1,2-dihydro-1,8-naphthyridine-3-carboxamide]",> 1000 nM,> 1000 nM,,,
"CC(NC(=O)c1cc2cc(-c3ccc(F)cc3)cnc2n(Cc2ncccn2)c1=O)c1ccc(F)cc1 (stereo not drawn) [Compound 65, 6-(4-fluorophenyl)-N-(1-(4-fluorophenyl)ethyl)-2-oxo-1-(pyrimidin-2-ylmethyl)-1,2-dihydro-1,8-naphthyridine-3-carboxamide]",,> 1000 nM,100 to 999 nM,,
"CC(C)Oc1ccc(-c2cnc3c(c2)cc(C(=O)NC2CC4(CCC4)C2)c(=O)n3Cc2ccc(F)cc2)cc1 [Compound 66, 6-(4-isopropoxyphenyl)-1-(4-fluorobenzyl)-2-oxo-N-(spiro[3.3]heptan-2-yl)-1,2-dihydro-1,8-naphthyridine-3-carboxamide]",> 1000 nM,> 1000 nM,,,
"O=C(NC1CC2(CCC2)C1)c1cc2cc(-c3ccc(OC4CC4)cc3)cnc2n(Cc2ccc(F)cc2)c1=O [Compound 67, 6-(4-cyclopropoxyphenyl)-1-(4-fluorobenzyl)-2-oxo-N-(spiro[3.3]heptan-2-yl)-1,2-dihydro-1,8-naphthyridine-3-carboxamide]",> 1000 nM,> 1000 nM,,,
"CS(=O)(=O)c1ccc(-c2cnc3c(c2)cc(C(=O)NC2CC4(CCC4)C2)c(=O)n3Cc2ccc(F)cc2)cc1 [Compound 68, 1-(4-fluorobenzyl)-6-(4-(methylsulfonyl)phenyl)-2-oxo-N-(spiro[3.3]heptan-2-yl)-1,2-dihydro-1,8-naphthyridine-3-carboxamide]",,> 1000 nM,100 to 999 nM,,
"O=C(Nc1ccccn1)c1cc2cc(Br)cnc2n(Cc2ccc(F)cc2)c1=O [Compound 70, 6-bromo-1-(4-fluorobenzyl)-2-oxo-N-(pyridin-2-yl)-1,2-dihydro-1,8-naphthyridine-3-carboxamide]",< 100 nM,> 1000 nM,,,
"Cc1ccc(NC(=O)c2cc3cc(Br)cnc3n(Cc3ccc(F)cc3)c2=O)cc1 [Compound 71, 6-bromo-1-(4-fluorobenzyl)-2-oxo-N-(p-tolyl)-1,2-dihydro-1,8-naphthyridine-3-carboxamide]",> 1000 nM,> 1000 nM,,,
"Cc1c(C(=O)NC2CCC(C)CC2)c(=O)n(CCN2CCOCC2)c2ncc(Br)cc12 (stereo not drawn) [Compound 72, 6-bromo-4-methyl-N-(4-methylcyclohexyl)-1-(2-morpholinoethyl)-2-oxo-1,2-dihydro-1,8-naphthyridine-3-carboxamide]",< 100 nM,> 1000 nM,,,
"COc1ccc(-c2cnc3c(c2)c(C)c(C(=O)NC2CCC(C)CC2)c(=O)n3CCN2CCOCC2)cc1 (stereo not drawn) [Compound 73, 6-(4-methoxyphenyl)-4-methyl-N-(4-methylcyclohexyl)-1-(2-morpholinoethyl)-2-oxo-1,2-dihydro-1,8-naphthyridine-3-carboxamide]",,> 1000 nM,100 to 999 nM,,
"COc1ccc(-c2cnc3c(c2)c(C)c(C(=O)NC2CC4(CCC4)C2)c(=O)n3CCN2CCOCC2)cc1 [Compound 74, 6-(4-methoxyphenyl)-4-methyl-1-(2-morpholinoethyl)-2-oxo-N-(spiro[3.3]heptan-2-yl)-1,2-dihydro-1,8-naphthyridine-3-carboxamide]",> 1000 nM,> 1000 nM,,,
"COc1ccc(-c2cnc3c(c2)c(C)c(C(=O)NC(C)c2ccc(F)cc2)c(=O)n3CCN2CCOCC2)cc1 (stereo not drawn) [Compound 75, N-(1-(4-fluorophenyl)ethyl)-6-(4-methoxyphenyl)-4-methyl-1-(2-morpholinoethyl)-2-oxo-1,2-dihydro-1,8-naphthyridine-3-carboxamide]",> 1000 nM,> 1000 nM,,,
"Cc1c(C(=O)NC2CC3(CCC3)C2)c(=O)n(Cc2ccc(F)cc2)c2ncc(Br)cc12 [Compound 76, 6-bromo-1-(4-fluorobenzyl)-4-methyl-2-oxo-N-(spiro[3.3]heptan-2-yl)-1,2-dihydro-1,8-naphthyridine-3-carboxamide]",< 100 nM,> 1000 nM,,,
"Cc1c(C(=O)NC2CC3(CCC3)C2)c(=O)n(Cc2ccc(C#N)cc2)c2ncc(Br)cc12 [Compound 77, 6-bromo-1-(4-cyanobenzyl)-4-methyl-2-oxo-N-(spiro[3.3]heptan-2-yl)-1,2-dihydro-1,8-naphthyridine-3-carboxamide]",,> 1000 nM,100 to 999 nM,,
"Cc1c(C(=O)NC2CC3(CCC3)C2)c(=O)n(Cc2cccc(C#N)c2)c2ncc(Br)cc12 [Compound 78, 6-bromo-1-(3-cyanobenzyl)-4-methyl-2-oxo-N-(spiro[3.3]heptan-2-yl)-1,2-dihydro-1,8-naphthyridine-3-carboxamide]",,> 1000 nM,100 to 999 nM,,
"COc1ccc(-c2cnc3c(c2)c(C)c(C(=O)NC2CCC(C)CC2)c(=O)n3Cc2ccc(F)cc2)cc1 (stereo not drawn) [Compound 80, 1-(4-fluorobenzyl)-6-(4-methoxyphenyl)-4-methyl-N-(4-methylcyclohexyl)-2-oxo-1,2-dihydro-1,8-naphthyridine-3-carboxamide]",,> 1000 nM,100 to 999 nM,,
"O=C(NC1CC2(CCC2)C1)c1cc2cc(Br)cnc2n(Cc2ccc(F)cc2)c1=O [Compound 81, 6-bromo-1-(4-fluorobenzyl)-2-oxo-N-(spiro[3.3]heptan-2-yl)-1,2-dihydro-1,8-naphthyridine-3-carboxamide]",,,,5 nM,> 10000 nM
"CC(C)c1cnc2c(c1)cc(C(=O)NC13CC(C1)C3)c(=O)n2Cc1ccc(F)cc1 [Compound 84, N-(bicyclo[1.1.1]pentan-1-yl)-1-(4-fluorobenzyl)-6-isopropyl-2-oxo-1,2-dihydro-1,8-naphthyridine-3-carboxamide]",,,,3.7 nM,413 nM
"CC(C)c1cnc2c(c1)cc(C(=O)NC1(c3ccc(C#N)cc3)CC1)c(=O)n2Cc1ccc(F)cc1 [Compound 86, N-(1-(4-cyanophenyl)cyclopropyl)-1-(4-fluorobenzyl)-6-isopropyl-2-oxo-1,2-dihydro-1,8-naphthyridine-3-carboxamide]",< 100 nM,> 1000 nM,,,
"C[C@@H](NC(=O)c1cc2cc(Br)cnc2n(Cc2ccc(F)cc2)c1=O)c1ccc(F)cc1 [Compound 87, (R)-6-bromo-1-(4-fluorobenzyl)-N-(1-(4-fluorophenyl)ethyl)-2-oxo-1,2-dihydro-1,8-naphthyridine-3-carboxamide]",,,,5 nM,4580 nM
"C=C(C)c1cnc2c(c1)cc(C(=O)N[C@H](C)c1ccc(F)cc1)c(=O)n2Cc1ccc(F)cc1 [Compound 88, (R)-1-(4-fluorobenzyl)-N-(1-(4-fluorophenyl)ethyl)-2-oxo-6-(prop-1-en-2-yl)-1,2-dihydro-1,8-naphthyridine-3-carboxamide]",,,,6.7 nM,> 10000 nM
"C[C@H](NC(=O)c1cc2cc(Br)cnc2n(Cc2ccc(F)cc2)c1=O)c1ccc(F)cc1 [Compound 90, (S)-6-bromo-1-(4-fluorobenzyl)-N-(1-(4-fluorophenyl)ethyl)-2-oxo-1,2-dihydro-1,8-naphthyridine-3-carboxamide]",,,,11 nM,348 nM
"C[C@@H](NC(=O)c1cc2cc(Br)cnc2n(Cc2ccc(F)cc2)c1=O)c1ccc(C#N)cc1 [Compound 91, (R)-6-bromo-N-(1-(4-cyanophenyl)ethyl)-1-(4-fluorobenzyl)-2-oxo-1,2-dihydro-1,8-naphthyridine-3-carboxamide]",,,,7 nM,> 10000 nM
"O=C(NC1CC2(CCC2)C1)c1cc2cc(C3CC3)cnc2n(Cc2ccc(F)cc2)c1=O [Compound 93, 6-cyclopropyl-1-(4-fluorobenzyl)-2-oxo-N-(spiro[3.3]heptan-2-yl)-1,2-dihydro-1,8-naphthyridine-3-carboxamide]",,,,3.6 nM,> 10000 nM
"O=C(NC1CC2(CCC2)C1)c1cc2cc(Br)cnc2n(Cc2cccnc2)c1=O [Compound 96, 6-bromo-2-oxo-1-(pyridin-3-ylmethyl)-N-(spiro[3.3]heptan-2-yl)-1,2-dihydro-1,8-naphthyridine-3-carboxamide]",< 100 nM,> 1000 nM,,,
